Laboratory results from publication PMC2784992 (Nature chemical biology, 2009).

Test system: Plasmodium falciparum lines, progeny, field isolates and transfected parasites
Details: 0.8 µM verapamil with DHMS

**Q.** For COc1ccc(CCN(C)CCCC(C#N)(c2ccc(OC)c(OC)c2)C(C)C)cc1OC (stereo not shown) [verapamil], which “effect on parasite response to 1” value is on record?
**A.** Its value is “did not have any effect”.
